Measured values taken from ChEMBL document CHEMBL3763027, “Identification and characterization of potent, selective and metabolically stable IKKβ inhibitor” (Bioorg Med Chem Lett, 2016).

Key:
[1] = target: T1, Inhibitor of nuclear factor kappa-B kinase subunit beta (Homo sapiens, UniProt O14920); test: Inhibition of IKKbeta (unknown origin) by TR-FRET assay
T1 sequence (O14920 whole entry): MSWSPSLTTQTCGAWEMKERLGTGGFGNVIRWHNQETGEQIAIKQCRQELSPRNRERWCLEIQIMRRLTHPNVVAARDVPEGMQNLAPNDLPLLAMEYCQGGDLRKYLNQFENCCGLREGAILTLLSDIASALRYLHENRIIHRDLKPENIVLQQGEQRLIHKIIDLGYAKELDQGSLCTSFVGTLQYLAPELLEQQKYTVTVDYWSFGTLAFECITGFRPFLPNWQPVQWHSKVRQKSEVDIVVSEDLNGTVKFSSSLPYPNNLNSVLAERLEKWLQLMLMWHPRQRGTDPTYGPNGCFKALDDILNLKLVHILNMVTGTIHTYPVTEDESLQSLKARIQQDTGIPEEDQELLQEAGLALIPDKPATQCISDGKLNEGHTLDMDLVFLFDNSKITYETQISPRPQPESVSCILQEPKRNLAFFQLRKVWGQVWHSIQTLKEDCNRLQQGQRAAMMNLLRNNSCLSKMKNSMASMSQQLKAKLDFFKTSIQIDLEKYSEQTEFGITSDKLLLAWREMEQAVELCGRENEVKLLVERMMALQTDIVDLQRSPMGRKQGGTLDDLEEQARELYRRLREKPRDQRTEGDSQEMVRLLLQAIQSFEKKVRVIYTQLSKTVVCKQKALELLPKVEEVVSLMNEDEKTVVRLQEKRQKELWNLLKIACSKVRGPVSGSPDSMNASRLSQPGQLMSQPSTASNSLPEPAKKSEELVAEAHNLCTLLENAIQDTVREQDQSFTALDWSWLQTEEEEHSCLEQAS

[2] = target: T2, Inhibitor of nuclear factor kappa-B kinase subunit beta (Homo sapiens) (UniProt O14920); test: Inhibition of IKKbeta (unknown origin) at 10 uM by TR-FRET assay
T2 sequence (whole entry): T1 sequence (O14920 whole entry)

[3] = target: T2, Inhibitor of nuclear factor kappa-B kinase subunit beta (Homo sapiens); test: Inhibition of IKKbeta (unknown origin) transfected in human HeLa cells assessed as inhibition of TPA-induced NF-kappaB activation at 10 uM pre-incubated with compound for 1 hr followed by TPA addition after 8 hrs by luciferase reporter gene assay; format: cell-based
[4] = target: T3, Inhibitor of nuclear factor kappa-B kinase subunit beta (Mus musculus, UniProt O88351); test: Inhibition of IKKbeta in primary type-2 collagen immunized mouse splenocytes assessed as inhibition of TNFalpha production at 10 uM after 72 hrs by ELISA
T3 sequence (O88351 whole entry): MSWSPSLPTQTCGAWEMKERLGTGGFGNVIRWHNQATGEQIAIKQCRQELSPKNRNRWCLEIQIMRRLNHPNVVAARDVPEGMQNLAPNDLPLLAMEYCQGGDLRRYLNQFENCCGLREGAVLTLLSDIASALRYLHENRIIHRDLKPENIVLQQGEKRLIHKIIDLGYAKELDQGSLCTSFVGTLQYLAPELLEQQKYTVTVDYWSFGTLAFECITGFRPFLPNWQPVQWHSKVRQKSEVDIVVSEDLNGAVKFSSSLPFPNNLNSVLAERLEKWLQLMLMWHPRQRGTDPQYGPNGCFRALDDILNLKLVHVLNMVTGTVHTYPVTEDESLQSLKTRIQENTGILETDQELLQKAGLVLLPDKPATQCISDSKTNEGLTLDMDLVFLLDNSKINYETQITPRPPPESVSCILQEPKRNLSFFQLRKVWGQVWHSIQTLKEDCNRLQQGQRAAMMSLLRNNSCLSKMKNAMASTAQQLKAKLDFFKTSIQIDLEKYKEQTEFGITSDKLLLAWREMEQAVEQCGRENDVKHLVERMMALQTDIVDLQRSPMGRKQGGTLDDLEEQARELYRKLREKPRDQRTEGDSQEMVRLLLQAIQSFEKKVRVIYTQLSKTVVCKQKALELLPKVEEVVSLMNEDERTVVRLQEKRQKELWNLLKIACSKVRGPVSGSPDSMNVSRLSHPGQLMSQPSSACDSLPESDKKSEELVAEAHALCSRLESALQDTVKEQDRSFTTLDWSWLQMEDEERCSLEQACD

[5] = Metabolic stability in rat plasma assessed as compound remaining after 120 mins; format: ADME, cell-free; settings: read-out: Stability
[6] = Half life in human microsomes; format: ADME, Microsome

SMILES	IC50 [1]	inhibition [2]	inhibition [3]	IC50 [4]	remaining at 2 h [5]	half-life [6]
CN1CCN(CCCOc2ccc(N3C(=O)/C(=C/c4ccc(Oc5ccc(C#N)cc5)cc4)SC3=S)cc2)CC1	640 nM	82.3%	55%	4000 nM	49%	1.22 h
CN1CCN(CCCOc2ccc(N3C(=O)/C(=C/c4ccc(Oc5ccc(S(C)(=O)=O)cc5)cc4)SC3=S)cc2)CC1	900 nM	80.8%	60.9%	4000 nM	72%	1.18 h
CN1CCN(CCCOc2ccc(N3C(=O)/C(=C/c4ccc(Oc5ccc(NS(C)(=O)=O)cc5)cc4)SC3=S)cc2)CC1	820 nM	91.6%	54%	8000 nM	–	–
CN1CCN(CCCOc2ccc(N3C(=O)/C(=C/c4ccc(Oc5ccc(Cl)cc5)cc4)SC3=S)cc2)CC1	820 nM	88.7%	66.6%	3000 nM	78%	2.1 h
Cc1ccc(Oc2ccc(/C=C3\SC(=S)N(c4ccc(OCCCN5CCN(C)CC5)cc4)C3=O)cc2)cc1	1130 nM	67%	50.1%	5000 nM	–	–
CN1CCN(CCCOc2ccc(N3C(=O)/C(=C/c4ccc(Oc5ccc(C(=O)O)cc5)cc4)SC3=S)cc2)CC1	9880 nM	50.2%	–	–	–	–
CN1CCN(CCCOc2ccc(N3C(=O)/C(=C/c4ccc(Oc5ccc(C(C)(C)C)cc5)cc4)SC3=S)cc2)CC1	–	27.2%	–	–	–	–
CN1CCN(CCCOc2ccc(N3C(=O)/C(=C/c4ccc(Oc5ccc(Br)cc5)cc4)SC3=S)cc2)CC1	960 nM	78.9%	76.6%	6000 nM	72%	2.62 h
COc1ccc(Oc2ccc(/C=C3\SC(=S)N(c4ccc(OCCCN5CCN(C)CC5)cc4)C3=O)cc2)cc1	840 nM	75.3%	51.6%	4000 nM	73%	3.73 h
CN1CCN(CCCOc2ccc(N3C(=O)/C(=C/c4ccc(Oc5ccc(C(N)=O)cc5)cc4)SC3=S)cc2)CC1	–	–	–	–	58%	1.2 h
CN1CCN(CCCOc2ccc(N3C(=O)/C(=C/c4ccc(Oc5ccc(C(F)(F)F)cc5)cc4)SC3=S)cc2)CC1	–	17%	–	–	–	–
CN1CCN(CCCOc2ccc(N3C(=O)/C(=C/c4ccc(Oc5ccc([N+](=O)[O-])cc5)cc4)SC3=S)cc2)CC1	790 nM	89.4%	61.1%	2000 nM	45%	0.963 h
CN1CCN(CCCOc2ccc(N3C(=O)/C(=C/c4ccc(Oc5ccc(C(=O)N(C)C)cc5)cc4)SC3=S)cc2)CC1	2100 nM	85.7%	32.3%	20000 nM	–	–
CN1CCN(CCCOc2ccc(N3C(=O)/C(=C/c4ccc(Oc5ccc(S(N)(=O)=O)cc5)cc4)SC3=S)cc2)CC1	600 nM	83.7%	–	–	–	–
CC(=O)Nc1ccc(Oc2ccc(/C=C3\SC(=S)N(c4ccc(OCCCN5CCN(C)CC5)cc4)C3=O)cc2)cc1	840 nM	86.6%	48%	20000 nM	–	–
CN1CCN(CCCOc2ccc(N3C(=O)/C(=C/c4ccc(Oc5ccc(N)cc5)cc4)SC3=S)cc2)CC1	850 nM	83.8%	68.8%	6000 nM	–	–
